What was measured:
Assay type in all cases: cell-based
[1] = test system: BG1 (KRAS variant/BRCA wild-type cell line); test: CellTiter-Blue chemosensitivity / cell viability assay, BG1; conditions: KRAS-variant line BG1 vs non-variant CAOV3
Description: (§1) The activity of drugs alone or in combination was determined by a high-through-put CellTiter-Blue cell viability assay. For these assays, 1.2×10^3 cells were plated in each well of 384-well plates using a Precision XS liquid handling station (Bio-Tek Instruments Inc., Winooski, Vt., USA) and allowed to attach overnight with incubation at 37° C., 5% CO2. Using the liquid handling station, all drugs were serially diluted 2:3 or 1:2 in media, and 5 μl of these dilutions were added to appropriate wells at indicated times. Four replicate wells were used for each drug concentration and an additional four control wells received a diluent control without drug. At the end of the incubation period with drugs, 5 μl CellTiter-Blue reagent (Promega Corp., Madison, Wis., USA) was added to each well. Cell viability was assessed by the ability of the remaining viable cells to bioreduce resazurin to resorufin. The fluorescence of resorufin (579 nm Ex/584 nm Em) was measured using a Synergy 4 microplate reader (Bio-Tek Instruments Inc.). […] IC50s were determined using a sigmoidal equilibrium model regression using XLfit version 5.2 (ID Business Solutions Ltd). The IC50 was defined as the concentration Of drug required for a 50% reduction in growth/viability. All experiments were carried out a minimum of three times.
For example, a cell line that is KRAS variant positive/BRCA wild-type (BG1), a non-variant/BRCA wild-type cell line (CAOV3) and a cell line KRAS-variant positive/BRCA1 mutant (IGR-OV1) were tested.

[2] = test system: wild-type 3′UTR reporter (KRAS); test: Luciferase reporter expression after irinotecan exposure, wild-type 3′UTR reporter
Text: (§2) The disclosure provides a method of predicting the response of a cancer cell to the combination of a chemotherapy and monoclonal antibody therapy, including detecting a mutation in let-7 complementary site LCS6 of human KRAS in a patient sample, wherein the mutation is a SNP comprising a uracil (U) or thymine (T) to guanine (G) transition at position 4 of LCS6, and wherein the presence of the mutation indicates a resistance to the combination. In certain embodiments of this method, the cancer cell is a colorectal cancer (CRC) cell. The cancer cell may be evaluated in vitro or ex vivo. […] The chemotherapy may be a cytotoxic agent. A non-limiting example of the cytotoxic agent is irinotecan.

[3] = test system: KRAS-variant 3′UTR reporter; test: Luciferase reporter expression after irinotecan exposure, KRAS-variant 3′UTR reporter
Text: as §2

[4] = test system: IGR-OV1 (KRAS-variant/BRCA1 mutant cell line); test: CellTiter-Blue chemosensitivity / cell viability assay, IGR-OV1; conditions: KRAS variant and deleterious BRCA1 mutation line vs CAOV3
Description: as §1, with “three times. […]” for “three times.”

Nc1ccn([C@@H]2O[C@H](CO)[C@@H](O)C2(F)F)c(=O)n1 [Gemcitabine, gemcitabine]
resistance of BG1 compared with CAOV3 [1]: significantly resistant

CCc1c2c(nc3ccc(OC(=O)N4CCC(N5CCCCC5)CC4)cc13)-c1cc3c(c(=O)n1C2)COC(=O)[C@]3(O)CC [irinotecan]
reporter expression following irinotecan exposure [2]: no change | reporter expression following irinotecan exposure [3]: statistically-significant increase

CC[C@@]1(O)C(=O)OCc2c1cc1n(c2=O)Cc2cc3c(CN(C)C)c(O)ccc3nc2-1 [Topotecan, topotecan]
resistance of BG1 compared with CAOV3 [1]: significantly resistant

COc1cccc2c1C(=O)c1c(O)c3c(c(O)c1C2=O)C[C@@](O)(C(=O)CO)C[C@@H]3O[C@H]1C[C@H](N)[C@H](O)[C@H](C)O1 [Doxorubicin, doxorubicin]
resistance of BG1 compared with CAOV3 [1]: significantly resistant

N.N.O=C([O-])C1(C(=O)[O-])CCC1.[Pt+2] [carboplatin]
resistance of BG1 compared with CAOV3 [1]: statistically significantly resistant | resistance of IGROV1 compared with CAOV3 [4]: not resistant

Reference: patent US20140065615A1, “The KRAS Variant and Tumor Biology” (YALE UNIVERSITY, priority 2011, published 2014)
